According to patent publication US20180147223A1 (priority 2016, published 2018):
Where “and” joins values, the source holds several entries; their conditions need not be identical. Identical values can stand only once.

What was measured:
BoNT/A LC = BoNT/A LC (Clostridium botulinum, UniProt P0DPI0); test: biochemical; assay type: biochemical, C. botulinum; conditions: for inhibition at 100 µM: read-out: % of Inhibition at 100 μM
[1] = molecular target: recombinant light chain A (rLCA) (Clostridium botulinum, UniProt P0DPI0); test: biochemical; parameters: species or system C. botulinum
LC of BoNT/A = LC of BoNT/A (Clostridium botulinum, UniProt P0DPI0); test: biochemical; assay type: biochemical, C. botulinum
BoNT/A = BoNT/A (Clostridium botulinum, UniProt P0DPI0); assay type: cell-based, C. botulinum
Chain of BoNT/A (P0DPI0 whole entry, looked up): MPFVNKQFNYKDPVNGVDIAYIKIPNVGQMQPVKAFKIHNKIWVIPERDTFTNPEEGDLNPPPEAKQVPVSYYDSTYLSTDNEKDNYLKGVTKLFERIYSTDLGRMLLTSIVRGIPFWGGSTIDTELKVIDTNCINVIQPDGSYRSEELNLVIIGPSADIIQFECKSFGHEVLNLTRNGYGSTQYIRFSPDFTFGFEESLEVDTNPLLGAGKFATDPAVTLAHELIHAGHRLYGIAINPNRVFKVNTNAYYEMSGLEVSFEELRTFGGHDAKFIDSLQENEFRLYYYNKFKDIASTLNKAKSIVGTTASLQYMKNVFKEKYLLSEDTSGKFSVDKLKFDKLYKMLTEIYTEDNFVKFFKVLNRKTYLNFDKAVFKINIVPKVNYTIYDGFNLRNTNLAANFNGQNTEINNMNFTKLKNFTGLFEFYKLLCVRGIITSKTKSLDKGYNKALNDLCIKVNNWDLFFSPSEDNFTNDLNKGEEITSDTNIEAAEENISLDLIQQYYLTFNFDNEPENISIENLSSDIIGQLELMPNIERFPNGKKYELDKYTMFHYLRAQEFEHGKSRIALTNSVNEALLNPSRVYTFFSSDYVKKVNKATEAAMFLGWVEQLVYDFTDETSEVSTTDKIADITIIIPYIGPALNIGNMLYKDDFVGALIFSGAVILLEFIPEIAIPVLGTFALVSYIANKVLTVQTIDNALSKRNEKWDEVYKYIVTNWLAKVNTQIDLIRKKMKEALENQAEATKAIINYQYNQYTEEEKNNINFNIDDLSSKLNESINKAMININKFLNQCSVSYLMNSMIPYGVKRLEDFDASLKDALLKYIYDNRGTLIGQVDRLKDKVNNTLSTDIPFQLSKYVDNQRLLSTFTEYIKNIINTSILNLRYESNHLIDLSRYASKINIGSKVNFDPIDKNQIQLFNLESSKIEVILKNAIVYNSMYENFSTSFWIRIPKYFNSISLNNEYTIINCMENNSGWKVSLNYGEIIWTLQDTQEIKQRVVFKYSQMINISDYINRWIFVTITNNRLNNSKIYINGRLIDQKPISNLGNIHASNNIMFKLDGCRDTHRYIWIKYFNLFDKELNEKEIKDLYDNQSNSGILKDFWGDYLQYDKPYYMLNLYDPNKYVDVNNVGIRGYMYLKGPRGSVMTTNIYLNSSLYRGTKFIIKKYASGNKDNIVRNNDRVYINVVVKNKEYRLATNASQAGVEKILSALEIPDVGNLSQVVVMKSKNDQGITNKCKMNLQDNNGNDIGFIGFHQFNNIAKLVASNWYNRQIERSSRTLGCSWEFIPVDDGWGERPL

Chain of LC of BoNT/A (P0DPI0 2-448 limits assumed): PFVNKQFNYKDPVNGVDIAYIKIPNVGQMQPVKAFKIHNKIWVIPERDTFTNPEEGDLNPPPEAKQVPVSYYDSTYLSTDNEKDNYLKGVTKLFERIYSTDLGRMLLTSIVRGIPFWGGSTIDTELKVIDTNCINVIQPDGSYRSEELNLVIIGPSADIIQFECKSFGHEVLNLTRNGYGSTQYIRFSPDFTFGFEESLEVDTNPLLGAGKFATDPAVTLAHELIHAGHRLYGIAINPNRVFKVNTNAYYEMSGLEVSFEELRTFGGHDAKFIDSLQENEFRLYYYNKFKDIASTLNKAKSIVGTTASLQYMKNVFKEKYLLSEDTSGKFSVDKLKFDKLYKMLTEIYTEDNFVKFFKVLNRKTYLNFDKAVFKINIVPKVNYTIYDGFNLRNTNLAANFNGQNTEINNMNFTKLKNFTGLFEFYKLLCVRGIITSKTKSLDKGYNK
Chain of recombinant light chain A (rLCA) (P0DPI0 2-448 limits assumed): as above
Chain of BoNT/A LC (P0DPI0 2-448 limits assumed): as above

Structure (SMILES)	IC50 (BoNT/A LC)	concentration at which near 100% inhibition (saturation) is reached (BoNT/A LC)	inhibition at 100 µM (BoNT/A LC)	IC50 [1]	Vmax (LC of BoNT/A)	type of inhibition (LC of BoNT/A)	α (LC of BoNT/A)	α′ (LC of BoNT/A)	Ki (LC of BoNT/A; Ki value)	inhibition of SNAP-25 cleavage by BoNT/A in M17 cells (BoNT/A)	inhibition of endogenous SNAP-25 cleavage in M-17-TR2 cells (BoNT/A)
O=c1ccc2cc3c(-c4ccc([N+](=O)[O-])cc4)coc3cc2o1 [Compound 1, 3-(4-nitrophenyl)-7H-furo[3,2-g][1]benzopyran-7-one]	6.5 µM	about 81 μM	100%	10 µM	2.064 RFU/s and 2.79 RFU/s and 2.55 RFU/s	non-competitive inhibition	2.76 (±1.12) and 1.38 (±0.33) and 1.8 (±0.30)	1.705 (±0.79) and 1.155 (±0.18) and 1.24 (±0.12)	14.2 µM and 17.5 µM and 14.7 µM	showed inhibition	significantly inhibit
O=c1oc2c(O)c(O)cc3c(=O)oc4c(O)c(O)cc1c4c23 [Compound 2, 2,3,7,8-Tetrahydroxy-chromeno[5,4,3-cde]chromene-5,10-dione]	0.65 ± 0.032 µM	–	101%	1.62 µM	–	–	–	–	–	–	–
O=C1C=C2CC3(O)COc4c(ccc(O)c4O)C3=C2C=C1O (stereo not drawn) [Compound 3, 3,4,6a, 10-Tetrahydroxy-6,7-dihydroindeno[2,1-c]chromen-9-one]	2.97 ± 0.048 µM	–	92.7%	0.86 µM	–	–	–	–	–	–	significantly inhibit
Cc1cc2c(C(C)C)c(O)c(O)c(C=O)c2c(O)c1-c1c(C)cc2c(C(C)C)c(O)c(O)c(C=O)c2c1O [Compound 4, 2, 2′-Bis(formyl-1,6,7-trihydroxy-5-isopropyl-3-methylnaphthalene)]	3.15 ± 0.043 µM	–	100%	11.4 µM	–	–	–	–	–	–	–
CCCCCCCCCCCC1=C(O)C(=O)C=C(O)C1=O [Compound 5, 2,5-dihydroxy-3-undecylcyclohexa-2,5-diene-1,4-dione]	4.5 ± 0.035 µM	–	100%	13.5 µM	–	–	–	–	–	–	–
O=C1c2ccccc2C(=O)c2c(O)c(O)cc(O)c21 [Compound 6, 1,2,4-trihydroxyanthracene-9,10-dione]	4.5 ± 0.0091 µM	–	100%	11.6 µM	–	–	–	–	–	–	significantly inhibit
O=C(O)CCCCC1CCSS1 (stereo not drawn) [Compound 7, 5-(1,2-Dithiolan-3-yl)-pentanoic acid]	5.06 ± 0.055 µM	–	90.5%	> 20 µM	–	–	–	–	–	–	–
Cc1c(C(=O)O)c(O)cc2c1C(=O)c1c(O)c([C@@H]3O[C@H](CO)[C@@H](O)[C@H](O)[C@H]3O)c(O)c(O)c1C2=O [Compound 8, carminic acid]	6.8 ± 0.035 µM	–	85.1%	> 20 µM	–	–	–	–	–	–	–
O=c1oc2c3c4c(cc2c2c1CCC2)CCCN4CCC3 [Compound 9, 2,3,6,7,10,11-Hexahydro-1H,5H-cyclopenta[3,4][1]benzopyrano[6,7,8-ij]quinolizin-12(9H)-one]	9.3 ± 1.59 µM	–	83.3%	> 20 µM	–	–	–	–	–	–	significantly inhibit
O=c1c(O)c(-c2ccc(O)c(O)c2)oc2c(O)c(O)cc(O)c12 [Compound 10, 2-(3,4-dihydroxyphenyl)-3,5,7,8-tetrahydroxychromen-4-one]	0.27 ± 0.0049 µM	–	104%	0.239 µM	–	–	–	–	–	–	significantly inhibit
